The IC50 is the point on the concentration scale where inhibition reaches its midpoint.

The target of one experiment is T1, PRMT6 (Homo sapiens, UniProt Q96LA8).
T1 construct: purchased Reaction Biology
As to the kind of experiment: HMT selectivity panel (Reaction Biology). Format: biochemical. The following applies: substrate GST-GAR, read-out: Enzyme % Activity (relative to DMSO controls). The method, then:
(§1) Table S1: Selectivity of the compound on a HMT panel (by Reaction Biology, USA) and on hDNMT3Acat (as described in Ceccaldi
(§2) Enzyme % Activity (relative to DMSO
(§3) Testing Concentration 10µM
(§4) Methyltransferase: Substrate: Activity enzyme in %

A further experiment concerns MV4-11 cells (MLL-AF4). As to the kind of experiment: Cell proliferation and viability, trypan blue counting. Format: cell-based, human. The following applies: Homo sapiens, 360 h; MV4-11 (AF4), 15-day treatment; read-out: EC50 of the proliferation inhibition.
The subject of experiment [1] is HOXA9 and MEIS1 expression in MV4-11, MOLM13 and KOPN8 cells. Nature of the experiment: Quantitative real-time PCR of MLL target genes. It counts as cell-based, human. The following applies: 0.1, 0.32, 1 and 3.2 µM; 6 days MV4-11 and MOLM13, 10 days KOPN8. As to the method: We then investigated the impact of the inhibition of H3K79me2 in MLLr cells on the expression of the pro-leukemic genes, HOXA9 and MEIS1. These are MLL target genes and have been characterized for being activated by the aberrant H3K79 methylation by DOT1L recruited at these genes by the MLL-fusion proteins and inhibited by DOTL1 inhibitors. […] The difference in kinetics is related to the doubling time of the cells (Table 1), indeed, we measured that the doubling time of MV4-11 is 12 h while the doubling time for MOLM-13 is 22 h.
The non-adherent cell lines MV4-11, MOLM-13, and KOPN8 exponentially growing cells were plated in 12-well plates (1 plate for each experiment) at a rate of 500,000 cells per well at a final volume of 2 mL. The cells were incubated in the presence of increasing inhibitor concentrations (0.1, 0.32, 1, 3.2, 10 µM). […]
Total RNA was isolated from the cell pellet of at least 1 × 10^6 cells using the RNAeasy mini kit (Cat No.: 74106, Qiagen) according to the manufacturer’s instructions. […] Complementary DNA (cDNA) was diluted at 1:10 and used as a template in quantitative real-time PCR (RT-qPCR) using the SYBR Green Master Kit (ref. 047516001, Roche, Boulogne-Billancourt, France) and LightCycler®480 (Roche, Boulogne-Billancourt, France) System according to the manufacturer’s instructions. […]

Another experiment addresses recombinant hDOT1L (Homo sapiens, UniProt Q8TEK3). Nature of the experiment: AlphaLISA DOT1L enzymatic inhibition assay on purified nucleosomes. On the technique in general: Bead proximity is the source of the signal in Alpha formats.
The target in another experiment is DNMT3A (Homo sapiens, UniProt Q9Y6K1). Nature of the experiment: hDNMT3Acat activity assay. The following applies: substrate DNA, read-out: Enzyme % Activity (relative to DMSO controls). It counts as biochemical. The method, then: as §1, §2, §3, §4
The subject of another experiment is MV4-11 cells. Nature of the experiment: Flow cytometry cell cycle analysis (propidium iodide). Format: cell-based, human. The following applies: for percentage of cells in the G0/G1 phase / percentage of cells in the S phase: MV4-11, 3.2 µM. The method, then: A decrease in the S phase of the cell cycle was also observed from 24% (day 8) to 20% (day 10), 13% (day 12).
In a 12-well plate, 2 mL exponentially growing MV4-11 cells were plated with a density of 2 × 10^5 cells/mL. […] Culture media and drugs were replaced every 2–3 days and cells were split back to a density of 2 × 10^5 cells/mL at the same time. Cells were harvested on days 8, 10, 12 and split to allow the analysis of cell cycle and Annexin V staining simultaneously. The apoptosis ratio was detected by an Annexin V-APC/7-AAD double staining assay (SONY 3804610) and cells were prepared according to the manufacturer’s recommendations. Cells for the cell cycle analysis were collected by centrifugation at 500× g for 5 min at 4 °C. The pellets were washed once with cold PBS and then fixed with 70% ethanol on ice for 30 min. Afterwards, the cells were washed once with cold PBS and stained with propidium iodide (Invitrogen P3566) for 30 min at 37 °C. Samples were measured using an Attune NxT acoustic focusing cytometer (Life Technologies), data were analyzed by FlowJo.
For orientation: Flow cytometry measures light scatter and fluorescence of single cells or particles in a stream.

Experiment [2] deals with histone marks H2R2me2S, H3K4me3, H3K9me2, H4K20me2, H4K20me3, H3K9me1, H3K36me1. As to the kind of experiment: Selectivity on histone marks by fluorescence microscopy HCS. Particulars: 7 tested histone marks other than H3K79me2. It counts as cell-based. The method, then: This difference in the mechanism was further confirmed by flow cytometry analysis of the impact of the compounds on the cell cycle and apoptosis.
as §1, §2, §3, §4
EZH2 Complex Core Histone 86±1
Figure S4. Selectivity evaluation of the compound Dia-2 by fluorescence microscopy HCS. A) fluorescence imaging of the
H3K79me2 mark B) bar diagram of the percentage of inhibition for compound Dia-2.
(1 picture or pasted object on this page, not shown here)

T1 sequence (Q96LA8 whole entry): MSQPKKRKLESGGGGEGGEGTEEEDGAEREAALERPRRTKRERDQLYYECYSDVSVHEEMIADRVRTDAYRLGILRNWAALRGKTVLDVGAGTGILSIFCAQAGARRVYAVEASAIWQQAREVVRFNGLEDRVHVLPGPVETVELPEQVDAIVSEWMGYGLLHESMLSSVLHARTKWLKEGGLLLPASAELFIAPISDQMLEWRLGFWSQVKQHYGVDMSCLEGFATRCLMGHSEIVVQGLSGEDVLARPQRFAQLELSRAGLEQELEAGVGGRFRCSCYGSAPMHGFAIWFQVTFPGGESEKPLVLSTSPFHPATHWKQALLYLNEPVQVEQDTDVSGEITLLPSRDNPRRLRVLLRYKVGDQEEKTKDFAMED
Chain of DNMT3A (Q9Y6K1 634-912 limits assumed): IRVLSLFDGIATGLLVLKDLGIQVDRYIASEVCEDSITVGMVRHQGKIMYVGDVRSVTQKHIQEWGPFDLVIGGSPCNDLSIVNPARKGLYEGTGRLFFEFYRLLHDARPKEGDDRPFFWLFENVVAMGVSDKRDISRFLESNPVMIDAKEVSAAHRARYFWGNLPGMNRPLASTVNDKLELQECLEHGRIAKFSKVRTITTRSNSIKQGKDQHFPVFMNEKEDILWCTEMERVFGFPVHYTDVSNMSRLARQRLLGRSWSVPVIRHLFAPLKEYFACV
Chain of recombinant hDOT1L (Q8TEK3 1-416): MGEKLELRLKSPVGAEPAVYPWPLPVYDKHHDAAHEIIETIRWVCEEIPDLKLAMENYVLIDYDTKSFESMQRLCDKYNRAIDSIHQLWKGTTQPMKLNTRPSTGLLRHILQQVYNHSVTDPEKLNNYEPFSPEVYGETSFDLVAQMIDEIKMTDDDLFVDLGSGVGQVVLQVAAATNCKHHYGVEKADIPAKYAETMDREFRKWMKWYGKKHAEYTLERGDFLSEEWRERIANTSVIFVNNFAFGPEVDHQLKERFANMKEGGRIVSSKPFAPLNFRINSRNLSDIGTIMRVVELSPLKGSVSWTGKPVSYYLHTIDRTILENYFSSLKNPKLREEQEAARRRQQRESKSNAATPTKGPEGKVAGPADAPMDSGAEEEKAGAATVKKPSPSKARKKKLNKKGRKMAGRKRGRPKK

As for `CC(C)[C@H](CCCNC(=O)Nc1ccc(C(C)(C)C)cc1)N[C@H]1C[C@@H](n2cnc3c(N)ncnc32)[C@H](O)[C@@H]1O` [Dia2, 1-((S)-4-(((1S,2R,3S,4R)-4-(6-amino-9H-purin-9-yl)-2,3-dihydroxycyclopentyl)amino)-5-methylhexyl)-3-(4-(tert-butyl)phenyl)urea], the remaining activity at 10 µM turned out to be 95 ± 1% at PRMT6 and 96 ± 2% on DNMT3A. In addition, the EC50 with MV4-11 cells (MLL-AF4) was 93 ± 4 nM. Also, in experiment [1], the “MEIS1 and HOXA9 expression” value is recorded as “decrease in a dose-dependent manner”. For the same compound, at recombinant hDOT1L, the half-maximal inhibitory concentration (IC50) worked out at 4.7 nM. Besides, the “effect on the cell cycle” value in the experiment with MV4-11 cells (MV4-11, 1 µM) is reported as “does not affect the cell cycle”. Further, the “percentage of cells in the G0/G1 phase” value is on record as 53% in the experiment on MV4-11 cells (day 8), 41% with MV4-11 cells (day 10) and 24% with MV4-11 cells (day 12). In addition, the entries for the “percentage of cells in the S phase” value in the experiment with MV4-11 cells (day 8), in the experiment on MV4-11 cells (day 10) and with MV4-11 cells (day 12) were 24%, 20% and 13%, respectively. In experiment [2], the “effect on other histone marks in cells” value is recorded as “does not affect the other 7 tested histone marks”.
